Two compounds from patent US20250003972A1, “A METHOD OF DETERMINING THE PRESENCE OF AN ANALYTE IN A SAMPLE” (Valitacell Limited, priority 2021, published 2025) can be followed below.

The subject of this assay is non-monomer IgG. As to the kind of experiment: DAOTA fluorescence polarisation (FP) assay: HMWS IgG (non-monomer) spiked into monomer IgG in culture media. Particulars: cell culture media; FP (mP) signal vs percentage non-monomer. Format: binding. As to the method:
Non-monomer IgG was sourced internally. This was obtained by size exclusion chromatography from Chinese Hamster Ovary (CHO) cell supernatant (this is a naturally occurring non-monomer IgG).
FP readings were made using an BMG Pherastar plate reader (BMG, […], Germany) in black half area NBS plates in a total of 120 ul (Corning, New York, USA).
For DAOTA FP assays, high molecular weight species (HMWS) of IgG (non-monomer) was spiked into monomer IgG in various proportions in 120 ul total of culture media (CD-CHO, ThermoFisher, UK) at a constant at a concentration of 200 mg/L. 0.1 ug of an N′-propyl, N-propyl derivative of diazaoxatriangulenium (N′PNP-DAOTA) was added, and the polarization signal was measured after 5 minutes incubation in the dark.

Turning to `CCCn1c2cccc3oc4cccc5c4[c+](c32)c2c1cccc2n5CCC` [N′PNP-DAOTA, N′-propyl, N-propyl derivative of diazaoxatriangulenium], the “binding to non-monomer IgG / IgG aggregates (FP polarisation signal)” value is “binds to non-monomer IgG”.
The value for “N-butanoic acid aza-di-oxa-triangulenium [N-Phenyl-ADOTA]” was “did not bind to IgG aggregates”.
